Measurements as given in EP4643869A1, “USE OF GNRH ANTAGONISTS SUCH AS TEVERELIX TO TREAT ACUTE URINARY RETENTION” (Antev Limited, priority 2024, dated 2025).
Structures can show the parent of a compound that is named as a salt. Where a SMILES comes first, the peptide text is derived from it. [ ]: non-standard residue; d: D form. dPhe(4-Cl) = N[C@H](Cc1ccc(Cl)cc1)C(=O)O; d2Nal = N[C@H](Cc1ccc2ccccc2c1)C(=O)O; d(hCit) = NC(=O)NCCCC[C@@H](N)C(=O)O; Lys(iPr) = CC(C)NCCCC[C@H](N)C(=O)O; d3Pal = N[C@H](Cc1cccnc1)C(=O)O

How the values were obtained:
male and female subjects = test: Safety across 16 Phase 1 and Phase 2 clinical trials; assay type: in vivo; conditions: 1,117 injections s.c. or i.m.; no SUSARs reported
Experimental: Teverelix-TFA has been studied in 450 male and female subjects in 16 Phase 1 and Phase 2 clinical trials. Teverelix-TFA has been tested in various dosing regimens in Phase 2 clinical trials in 97 patients with BPH.
Administrations have ranged from a single dose of 0.125 mg up to 180 mg repeat doses of teverelix for three consecutive days.

[1] = test system: patients 50 years or over, with BPH and bothersome voiding symptoms; test: Safety: adverse events (Experiment I); assay type: in vivo, human
Experimental: (§1) The study comprised two periods: a four-week single-blind placebo run-in period for all patients to remove any placebo responders and reduce between-patient variability in baseline measurements. This was followed by a 16-week randomised, double-blind, placebo-controlled, parallel group period for eligible patients. Following screening (Day-28), patients entered the placebo run-in period and received two subcutaneous injections of placebo, 48 h apart. During this period, one visit was planned for training purposes (e.g., IPSS). At the end of the placebo run-in period, patients still meeting the eligibility criteria were randomised to receive two subcutaneous injections of 60 mg teverelix or placebo, 48 h apart, on day 1 and day 3. Teverelix was supplied as a freeze-dried powder that was reconstituted with 5% mannitol in water for injection. Corresponding placebo formulations, without teverelix-TFA, were also prepared. Injections were given in the abdomen. Patients attended follow-up visits for up to 16 weeks.
Safety included the assessment of adverse events (AEs), vital signs (supine blood pressure and pulse), electrocardiograms (ECG), and clinical laboratory parameters (haematology, clinical chemistry, and urinalysis). Drug-related AEs were defined as those with a relationship to study drug of `likely' or `not assessable'.

[2] = test system: patients 50 years or over, with BPH and bothersome voiding symptoms; test: Investigator rating of efficacy and tolerability at final assessment (Experiment I); assay type: in vivo, human
Experimental: This was a multicentre (n=8), randomised, double-blind, placebo-controlled study in treatment of patients 50 years or over, with BPH and bothersome voiding symptoms characterized as an International Prostate Symptom Score (IPSS score ≥13) and a uroflow <13 mL/sec for a voided volume ≥150 mL. Exclusion criteria included an urgent need for prostate surgery, elevated prostate specific antigen (PSA) levels above the upper limit of normal relative to age, major organ dysfunction, prior surgical treatment of the prostate or bladder, and a large residual urine volume (>350 mL).
The study comprised two periods: a four-week single-blind placebo run-in period for all patients to remove any placebo responders and reduce between-patient variability in baseline measurements. This was followed by a 16-week randomised, double-blind, placebo-controlled, parallel group period for eligible patients. Following screening (Day-28), patients entered the placebo run-in period and received two subcutaneous injections of placebo, 48 h apart. During this period, one visit was planned for training purposes (e.g., IPSS). […]
At the final assessment, the investigator assessed efficacy and tolerability as either very good/good, satisfactory, poor/insufficient, or not assessable.

testosterone = test: PKPD of single-dose teverelix-TFA, subcutaneous or intramuscular; assay type: in vivo; conditions: single dose of 120 mg subcutaneous
[3] = Plasma concentrations of teverelix (Experiment I); assay type: in vivo, human; conditions: 60 mg s.c. on Day 1 and Day 3
Experimental: as §1
Blood samples were gathered in the morning on Day 1 and Day 3 prior to dosing, along with assessments at the conclusion of Weeks 1, 2, 3, 4, 8, 12, and the final evaluation at Week 16, for the measurement of teverelix, testosterone, and dihydrotestosterone (DHT). Plasma concentrations of teverelix were analysed to delineate the release profile of the active substance from teverelix.

[4] = test system: patients with a first episode of AUR related to BPH; conditions: alfuzosin 10 mg once daily; placebo 39.7%; cited from earlier work

| PKPD profile versus two subcutaneous injections of 60 mg two days apart (testosterone) | time until which teverelix plasma concentrations kept rising [3] | Compound | overall safety and tolerability (male and female subjects) | patients reporting an AE likely drug-related or not assessable ([1]; 22 patients of 41) | intensity of drug-related AEs ([1]; in vivo) | patients with drug-related hyperuricaemia ([1]; in vivo) | patients with drug-related urinary retention ([1]; in vivo) | serious AEs, assessed as not drug related ([1]; in vivo) | injection site induration ([1]; share of patients) | pain (AE) ([1]; share of patients) | subcutaneous injection site reactions ([1]; share of patients) | patients rated by the investigator as having very good/good tolerability [2] | success rate after 6 months (successful TWOC and no AUR relapse nor any need for surgery) [4] |
| --- | --- | --- | --- | --- | --- | --- | --- | --- | --- | --- | --- | --- | --- |
| comparable | until the end of Week 3 | CC(=O)N[C@H](Cc1ccc2ccccc2c1)C(=O)N[C@H](Cc1ccc(Cl)cc1)C(=O)N[C@H](Cc1cccnc1)C(=O)N[C@@H](CO)C(=O)N[C@@H](Cc1ccc(O)cc1)C(=O)N[C@H](CCCCNC(N)=O)C(=O)N[C@@H](CC(C)C)C(=O)N[C@@H](CCCCNC(C)C)C(=O)N1CCC[C@H]1C(=O)N[C@H](C)C(N)=O [teverelix, N-Ac-d-Nal^1,d-pCl-Phe^2,d-Pal^3,d-(Hci)^6,Lys(iPr)^8,d-Ala^10 trifluoroacetate] (Ac-[d2Nal][dPhe(4-Cl)][d3Pal]SY[d(hCit)]L[Lys(iPr)]P[dA]-NH2) | safe and well-tolerated | 53.7% | mild intensity | one patient | 1 patient | cholelithiasis/pancreatitis | 17.1% | 2.4% | 31.7% | all patients |  |
|  |  | COc1cc2nc(N(C)CCCNC(=O)C3CCCO3)nc(N)c2cc1OC (stereo not shown) [alfuzosin] |  |  |  |  |  |  |  |  |  |  | 43.5% |
